From the NIST ThermoML archive (doi:10.1016/j.fluid.2015.04.017)
± gives the expanded uncertainty stated by the source.

Assay: xn = mol fraction of the nth substance listed
Settings: 101 kPa, Liquid; for viscosity: Concentric cylinders viscometry; for mass density: Vibrating tube method

With `CCOC(=O)C(C)O` (stereo not drawn) [DL-ethyl lactate] + CN1CCCC1=O the viscosity (288.15 K, x1 = 0.0999) was 2.34 ± 0.022 mPa·s, the viscosity (288.15 K, x1 = 0.2) was 2.601 ± 0.025 mPa·s and the viscosity (288.15 K, x1 = 0.3001) was 2.89 ± 0.028 mPa·s. For the same compound, the viscosity (288.15 K, x1 = 0.4) was 3.122 ± 0.03 mPa·s, the viscosity (288.15 K, x1 = 0.4997) was 3.352 ± 0.032 mPa·s and the viscosity (288.15 K, x1 = 0.6) was 3.508 ± 0.034 mPa·s. It also gave a viscosity (288.15 K, x1 = 0.7002) of 3.581 ± 0.035 mPa·s, a viscosity (288.15 K, x1 = 0.7999) of 3.567 ± 0.036 mPa·s and a viscosity (288.15 K, x1 = 0.8997) of 3.456 ± 0.035 mPa·s. The viscosity (288.15 K, x1 = 1) was 3.207 ± 0.033 mPa·s, the mass density (288.15 K, x1 = 0.0999) was 1040.68 ± 0.11 kg/m3 and the mass density (288.15 K, x1 = 0.2) was 1041.7 ± 0.12 kg/m3. The mass density (288.15 K, x1 = 0.3001) was 1042.78 ± 0.14 kg/m3, the mass density (288.15 K, x1 = 0.4) was 1043.43 ± 0.15 kg/m3 and the mass density (288.15 K, x1 = 0.4997) was 1043.89 ± 0.17 kg/m3. The mass density (288.15 K, x1 = 0.6) was 1043.93 ± 0.19 kg/m3, the mass density (288.15 K, x1 = 0.7002) was 1043.56 ± 0.2 kg/m3 and the mass density (288.15 K, x1 = 0.7999) was 1042.82 ± 0.22 kg/m3. The mass density (288.15 K, x1 = 0.8997) was 1041.57 ± 0.24 kg/m3, the mass density (288.15 K, x1 = 1) was 1039.28 ± 0.26 kg/m3 and the viscosity (293.15 K, x1 = 0.0999) was 2.125 ± 0.02 mPa·s. For the same compound, the viscosity (293.15 K, x1 = 0.2) was 2.347 ± 0.023 mPa·s, the viscosity (293.15 K, x1 = 0.3001) was 2.585 ± 0.025 mPa·s and the viscosity (293.15 K, x1 = 0.4) was 2.772 ± 0.027 mPa·s. For the same compound, the viscosity (293.15 K, x1 = 0.4997) was 2.952 ± 0.029 mPa·s, the viscosity (293.15 K, x1 = 0.6) was 3.066 ± 0.03 mPa·s and the viscosity (293.15 K, x1 = 0.7002) was 3.11 ± 0.031 mPa·s. For the same compound, the viscosity (293.15 K, x1 = 0.7999) was 3.08 ± 0.031 mPa·s, the viscosity (293.15 K, x1 = 0.8997) was 2.975 ± 0.03 mPa·s and the viscosity (293.15 K, x1 = 1) was 2.75 ± 0.028 mPa·s. For the same compound, the mass density (293.15 K, x1 = 0.0999) was 1036.17 ± 0.11 kg/m3, the mass density (293.15 K, x1 = 0.2) was 1037.14 ± 0.12 kg/m3 and the mass density (293.15 K, x1 = 0.3001) was 1038.17 ± 0.14 kg/m3. For the same compound, the mass density (293.15 K, x1 = 0.4) was 1038.75 ± 0.15 kg/m3, the mass density (293.15 K, x1 = 0.4997) was 1039.12 ± 0.17 kg/m3 and the mass density (293.15 K, x1 = 0.6) was 1039.06 ± 0.18 kg/m3. For the same compound, the mass density (293.15 K, x1 = 0.7002) was 1038.56 ± 0.2 kg/m3, the mass density (293.15 K, x1 = 0.7999) was 1037.68 ± 0.22 kg/m3 and the mass density (293.15 K, x1 = 0.8997) was 1036.28 ± 0.24 kg/m3. It also gave a mass density (293.15 K, x1 = 1) of 1033.84 ± 0.26 kg/m3, a viscosity (298.15 K, x1 = 0.0999) of 1.941 ± 0.019 mPa·s and a viscosity (298.15 K, x1 = 0.2) of 2.132 ± 0.021 mPa·s. It also gave a viscosity (298.15 K, x1 = 0.3001) of 2.331 ± 0.023 mPa·s, a viscosity (298.15 K, x1 = 0.4) of 2.482 ± 0.024 mPa·s and a viscosity (298.15 K, x1 = 0.4997) of 2.624 ± 0.026 mPa·s. For the same compound, the viscosity (298.15 K, x1 = 0.6) was 2.706 ± 0.027 mPa·s, the viscosity (298.15 K, x1 = 0.7002) was 2.726 ± 0.027 mPa·s and the viscosity (298.15 K, x1 = 0.7999) was 2.692 ± 0.027 mPa·s. It also gave a viscosity (298.15 K, x1 = 0.8997) of 2.591 ± 0.026 mPa·s, a viscosity (298.15 K, x1 = 1) of 2.39 ± 0.025 mPa·s and a mass density (298.15 K, x1 = 0.0999) of 1031.66 ± 0.11 kg/m3. For the same compound, the mass density (298.15 K, x1 = 0.2) was 1032.59 ± 0.12 kg/m3, the mass density (298.15 K, x1 = 0.3001) was 1033.56 ± 0.13 kg/m3 and the mass density (298.15 K, x1 = 0.4) was 1034.06 ± 0.15 kg/m3. It also gave a mass density (298.15 K, x1 = 0.4997) of 1034.35 ± 0.16 kg/m3, a mass density (298.15 K, x1 = 0.6) of 1034.17 ± 0.18 kg/m3 and a mass density (298.15 K, x1 = 0.7002) of 1033.55 ± 0.2 kg/m3. The mass density (298.15 K, x1 = 0.7999) was 1032.53 ± 0.21 kg/m3, the mass density (298.15 K, x1 = 0.8997) was 1030.98 ± 0.23 kg/m3 and the mass density (298.15 K, x1 = 1) was 1028.39 ± 0.25 kg/m3. For the same compound, the viscosity (303.15 K, x1 = 0.0999) was 1.785 ± 0.017 mPa·s, the viscosity (303.15 K, x1 = 0.2) was 1.947 ± 0.019 mPa·s and the viscosity (303.15 K, x1 = 0.3001) was 2.113 ± 0.021 mPa·s. It also gave a viscosity (303.15 K, x1 = 0.4) of 2.235 ± 0.022 mPa·s, a viscosity (303.15 K, x1 = 0.4997) of 2.349 ± 0.023 mPa·s and a viscosity (303.15 K, x1 = 0.6) of 2.41 ± 0.024 mPa·s. The viscosity (303.15 K, x1 = 0.7002) was 2.416 ± 0.024 mPa·s, the viscosity (303.15 K, x1 = 0.7999) was 2.378 ± 0.024 mPa·s and the viscosity (303.15 K, x1 = 0.8997) was 2.284 ± 0.024 mPa·s. The viscosity (303.15 K, x1 = 1) was 2.097 ± 0.022 mPa·s, the mass density (303.15 K, x1 = 0.0999) was 1027.16 ± 0.11 kg/m3 and the mass density (303.15 K, x1 = 0.2) was 1028.05 ± 0.12 kg/m3. It also gave a mass density (303.15 K, x1 = 0.3001) of 1028.95 ± 0.13 kg/m3, a mass density (303.15 K, x1 = 0.4) of 1029.38 ± 0.15 kg/m3 and a mass density (303.15 K, x1 = 0.4997) of 1029.57 ± 0.16 kg/m3. For the same compound, the mass density (303.15 K, x1 = 0.6) was 1029.29 ± 0.18 kg/m3, the mass density (303.15 K, x1 = 0.7002) was 1028.53 ± 0.19 kg/m3 and the mass density (303.15 K, x1 = 0.7999) was 1027.37 ± 0.21 kg/m3. It also gave a mass density (303.15 K, x1 = 0.8997) of 1025.67 ± 0.23 kg/m3 and a mass density (303.15 K, x1 = 1) of 1022.92 ± 0.25 kg/m3.
